Test results from patent publication EP0987275B1, “Molecules that home to a selected organ or tissue in vivo” (LA JOLLA CANCER RESEARCH FOUNDATION, priority 1995, dated 2008).
Where no end group is shown, it is not given here.

How the values were obtained:
kidney = assay: In vivo panning of phage peptide display libraries, kidney as the selected organ (brain control); set-up: species or system mice; details: phage recovered from kidney; for (% PHAGE): % of the 48 clones sequenced; for # PHAGE DISPLAYING SAME A.A. SEQUENCE: 48 cloned phage sequenced
Protocol: (§1) A mixture of phage libraries containing 1 x 10^14 TU was diluted in 200 µl DMEM and injected into the tail vein of anesthetized BALB\c mice (2 month old females; Jackson Laboratories; Bar Harbor ME); Avertin™ (0.015 ml/g) was used as anesthetic (see Pasqualini and Ruoslahti, supra, 1996). After 1-4 minutes, mice were snap frozen in liquid nitrogen. To recover the phage, carcasses were partially thawed at room temperature for 1 hr, organs were collected and weighed, then were ground in 1 ml DMEM-PI (DMEM containing protease inhibitors (PI); phenylmethylsulfonyl fluoride (PMSF; 1 mM), aprotinin (20 µg/ml), leupeptin (1 µg/ml)).
(§2) Organ samples were washed 3 times with ice cold DMEM-PI containing 1% bovine serum albumin (BSA), then directly incubated with 1 ml K91-kan bacteria for 1 hr. Ten ml NZY medium containing […] tetracycline (NZY/tet) was added to the bacterial culture, the mixture was incubated in a 37°C shaker for 1 hr, then 200 µl aliquots were plated in agar plates containing 40 µg/ml tetracycline (tet/agar).
(§3) Individual colonies containing phage recovered from brain or kidney were grown for 16 hr in 5 ml NZY/tet. The bacterial cultures obtained from the individual colonies were pooled and the phage were purified and re-injected into mice as described above for a second round of in vivo panning. A third round of panning also was performed. Phage DNA was purified from individual bacterial colonies obtained from the second and the third round of in vivo panning and the DNA sequences encoding the peptides expressed by selected phage were determined (see Koivunen et al., supra, 1994b).
The same methodology used to isolate phage expressing brain homing peptides was used to isolate phage expressing peptides that home to kidney. In these experiments, brain was used as the control organ. A mixture of the CX5C (SEQ ID NO: 36) and the CX6C (SEQ ID NO: 37) libraries was administered as described above. Homing of phage to the kidney was obtained and an approximately 3x to 7x enrichment of phage homing to kidney was observed following a second round of in vivo panning.
The amino acid sequences were determined for the inserts in 48 cloned phage that homed to kidney. The peptides expressed by these phage were represented by two predominant sequences, CLPVASC (SEQ ID NO: 21; 46% of the clones sequenced) and CGAREMC (SEQ ID NO: 22; 17% of the clones; see Table 2). In addition, the peptide CKGRSSAC (SEQ ID NO: 23) appeared three times and three other peptides were present twice each.

brain = assay: In vivo panning of phage peptide display libraries, brain as the selected organ (kidney control); set-up: species or system mice; details: phage recovered from brain; for (% PHAGE): % of the 73 clones sequenced; for # PHAGE DISPLAYING SAME A.A. SEQUENCE: second and third rounds of in vivo panning, 73 cloned phage sequenced
Protocol: Phage display libraries were constructed using the fuse 5 vector as described by Koivunen et al. (supra, 1995; see, also, Koivunen et al. Meth. Enzymol. 245:346-369 (1994b), which is incorporated herein by reference). Six libraries encoding peptides designated CX5C (SEQ ID NO: 36), CX6C (SEQ ID NO: 37), CX7C (SEQ ID NO: 38), CX9 (SEQ ID NO: 39), X2CX14CX2 (SEQ ID NO: 40) and X2CX18 (SEQ ID NO: 41) were prepared, where "C" indicates cysteine and "XN" indicates the given number of individually selected amino acids. These libraries can display cyclic peptides when at least two cysteine residues are present in the peptide.
Oligonucleotides were constructed such that "C" was encoded by the codon TGT and "XN" was encoded by NNK, where "N" is equal molar mixtures of A, C, G and T, and where "K" is equal molar mixtures of G and T. Thus, the peptide represented by CX5C (SEQ ID NO: 36) can be represented by an oligonucleotide having the sequence TGT(NNK)5TGT (SEQ ID NO: 42). Oligonucleotides were made double stranded by 3 cycles of PCR amplification, purified and ligated to the nucleic acid encoding the gene III protein in the fuse 5 vector such that, upon expression, the peptide is present as a fusion protein at the N-terminus of the gene III protein.
The vectors were transfected by electroporation into MC1061 cells. Bacteria were cultured for 24 hr in the presence of 20 µg/ml tetracycline, then phage were collected from the supernatant by precipitation twice using polyethylene glycol. Each library contained about 5 x 10^9 to 5 x 10^14 transducing units (TU; individual recombinant phage).
as §1, §2, §3
Three rounds of in vivo panning in mice were performed. Kidney was used as a control organ. Mice were injected with two different mixtures of phage libraries. The first mixture contained libraries encoding CX9 (SEQ ID NO: 39), CX5C (SEQ ID NO: 36), CX6C (SEQ ID NO: 37) and CX7C (SEQ ID NO: 38) peptides (CX5-7/CX9 mixture; SEQ ID NOS: 36-39). The second mixture contained libraries encoding X2CX14CX2 (SEQ ID NO: 40) and X2CX18 (SEQ ID NO: 41) peptides (X2CX18/X2CX14CX2 mixture; SEQ ID NOS: 40 and 41).
The phage library mixtures were administered to mice via tail vein injection. Phage input was […] of the CX5-7/CX9 (SEQ ID NOS: 36-39) mixture or 1 x 10^14 TU of the X2CX18/X2CX14CX2 (SEQ ID NOS: 40 and 41) mixture. […]

[1] = tested on: B16B15b mouse melanoma cells; assay: In vivo panning in mice bearing an implanted mouse melanoma tumor; set-up: species or system nude mice; details: phage recovered from B16B15b tumors; 89 cloned phage sequenced
Protocol: Mice bearing a melanoma were produced by implantation of B16B15b mouse melanoma cells, which produce highly vascularized tumors. B16B15b mouse melanoma cells were injected subcutaneously into the mammary fat pad of nude mice (2 months old) and tumors were allowed to grow until the diameter was about 1 cm. In vivo panning was performed as disclosed above. Approximately 1 x 10^12 transducing units of phage expressing the CX5C (SEQ ID NO: 36), CX6C (SEQ ID NO: 37) or […] library were injected, iv, and allowed to circulate for 4 min. Mice then were snap frozen in liquid nitrogen while under anesthesia, tumor tissue and brain (control organ) were removed, and phage were isolated as described above. Three rounds of in vivo panning were performed.
The amino acid sequences were determined for the inserts in 89 cloned phage recovered from the B16B15b tumors. The peptides expressed by these phage were represented by two predominant sequences, CLSGSLSC (SEQ ID NO: 55; 52% of the clones sequenced) and WGTGLC (SEQ ID NO: 52; 25% of the clones; see Table 4).

Row | Substance | (% PHAGE) (kidney) [%] | # PHAGE DISPLAYING SAME A.A. SEQUENCE (kidney) | (% PHAGE) (brain) [%] | # PHAGE DISPLAYING SAME A.A. SEQUENCE (brain) | also measured
1 | CFVGHDLC (displayed on phage) [peptide from phage recovered from kidney] | 2.1 | 1 | – | – | –
2 | CVGECGGC (displayed on phage) [peptide from phage recovered from kidney] | 2.1 | 1 | – | – | –
3 | CLGRSSVC (displayed on phage) [peptide from phage recovered from kidney] | 4.2 | 2 | – | – | –
4 | YPCGGEAVAGVSSVRTMCSE (displayed on phage) [peptide from phage recovered from brain] | – | – | 1.4 | 1 | –
5 | LNCDYQGTNPATSVSVPCTV (displayed on phage) [peptide from phage recovered from brain] | – | – | 1.4 | 1 | –
6 | CVAWLNC (displayed on phage) [peptide from phage recovered from kidney] | 2.1 | 1 | – | – | –
7 | CRRFQDC (displayed on phage) [peptide from phage recovered from kidney] | 2.1 | 1 | – | – | –
8 | CTSPGGSC (displayed on phage) [peptide from phage recovered from kidney] | 4.2 | 2 | – | – | –
9 | CRCLNVC (displayed on phage) [peptide from phage recovered from kidney] | 2.1 | 1 | – | – | –
10 | CLMGVHC (displayed on phage) [peptide from phage recovered from kidney] | 2.1 | 1 | – | – | –
11 | CETLPAC (displayed on phage) [peptide from phage recovered from brain] | – | – | 1.4 | 1 | –
12 | CIEGVLGGC (cysteine pairing not given here; also: displayed on phage) [peptide from phage recovered from mouse B16B15b melanoma] | – | – | – | – | # clones [1]: 2; % of total phage [1]: 2%
13 | CGNPSYRC (displayed on phage) [peptide from phage recovered from brain] | – | – | 1.4 | 1 | –
14 | CNSRLQLRC (displayed on phage) [peptide from phage recovered from brain] | – | – | 5.5 | 4 | –
15 | CWARAQGC (displayed on phage) [peptide from phage recovered from kidney] | 4.2 | 2 | – | – | –
16 | CKLMGEC (displayed on phage) [peptide from phage recovered from kidney] | 2.1 | 1 | – | – | –
17 | CRTGTLFC (displayed on phage) [peptide from phage recovered from brain] | – | – | 1.4 | 1 | –
18 | CTRITESC (displayed on phage) [peptide from phage recovered from brain] | – | – | 2.8 | 2 | –
19 | CSSTMRC (cysteine pairing not given here; also: displayed on phage) [peptide from phage recovered from mouse B16B15b melanoma] | – | – | – | – | # clones [1]: 2; % of total phage [1]: 2%
20 | CGRSLDAC (displayed on phage) [peptide from phage recovered from brain] | – | – | 1.4 | 1 | –
21 | CLDWGRIC (displayed on phage) [peptide from phage recovered from brain] | – | – | 2.8 | 2 | –
22 | CKLLSGVC (displayed on phage) [peptide from phage recovered from kidney] | 2.1 | 1 | – | – | –
23 | CSVANSC (cysteine pairing not given here; also: displayed on phage) [peptide from phage recovered from mouse B16B15b melanoma] | – | – | – | – | # clones [1]: 3; % of total phage [1]: 3%
24 | CRHWFDVVC (displayed on phage) [peptide from phage recovered from brain] | – | – | 1.4 | 1 | –
25 | CVLRGGRC (displayed on phage) [peptide from phage recovered from brain] | – | – | 6.8 | 5 | –
26 | CMGRWRLC (displayed on phage) [peptide from phage recovered from kidney] | 2.1 | 1 | – | – | –
27 | WGTGLC (also: displayed on phage) [peptide from phage recovered from mouse B16B15b melanoma] | – | – | – | – | # clones [1]: 22; % of total phage [1]: 25%
28 | CGVRLGC (displayed on phage) [peptide from phage recovered from brain] | – | – | 4.1 | 3 | –
29 | CANAQSHC (displayed on phage) [peptide from phage recovered from brain] | – | – | 1.4 | 1 | –
30 | CKDWGRIC (displayed on phage) [peptide from phage recovered from brain] | – | – | 2.8 | 2 | –
